Assay results taken from US20150125509A1, “TREATMENT OF FISH POPULATIONS WITH LUFENURON” (priority 2012, published 2015).

How the values were obtained:
[1] = tested on: sea louse; settings: injectable, WO99/063824; cited from earlier work
[2] = tested on: L. salmonis; assay: Example 2: in-feed treatment in fresh water hatchery, natural sea louse infestation after sea transfer, L. salmonis counts; type: in vivo, Lepeophtheirus salmonis on Atlantic salmon (Salmo salar); settings: for L. salmonis: all stages, Treated, counts / L. salmonis: pre- & adults, Efficacy / L. salmonis: pre- & adults, Treated, counts: fresh water
Method: Three groups of 400 Atlantic salmon (Salmo salar) of average weight 80 g were treated with medicated pellets containing lufenuron to deliver doses equivalent to 1, 5 and 10 mg/kg/day over 7 consecutive days. A fourth group containing 400 salmon of average weight 80 g was added to the study as a non-treated control group. The medicated pellets were prepared by coating commercially available fish feed pellets with a lufenuron-containing pre-mix to reach a content of 0.005, 0.025 and 0.05% (w/w) lufenuron in the fish feed. The groups were randomized and the identity of the feeds blinded to the site staff. The treatment was undertaken in a fresh water hatchery and the fish transferred to sea water within 7 days of completion of treatment.
On transfer to sea each group was split into two cages and all cage groups were maintained in separate randomized cages.
After treatment, the fish were exposed to natural sea louse infestation. During the study the temperature varied between 1.9 and 8.1° C. Fish weights were assessed at allocation to cages, again approximately 2 weeks after the sea transfer and then at 4 weekly intervals. Sea louse numbers were assessed at approximately 2 weeks after the sea transfer and then at 4 weekly intervals. The numbers of chalimus, pre-adults and adult male, mobile and mature female L. salmonis were recorded for each fish. No distinction was made between chalimus stages I-IV or between pre-adult and adult male stages. Total numbers of Caligus elongatus were also recorded but no significant infestation was established to enable an assessment of efficacy.
Efficacy was calculated using the formula:
% Efficacy=100−(100×mean of treatment group/mean of control).

[3] = 1 mg/kg/day 7 days in-feed, 15 days post sea transfer
[4] = 1 mg/kg/day 7 days in-feed, 42 days post sea transfer
[5] = 1 mg/kg/day 7 days in-feed, 76 days post sea transfer
[6] = 1 mg/kg/day 7 days in-feed, 98 days post sea transfer
[7] = 1 mg/kg/day 7 days in-feed, 125 days post sea transfer
[8] = 1 mg/kg/day 7 days in-feed, 154 days post sea transfer
[9] = 5 mg/kg/day 7 days in-feed, 15 days post sea transfer
[10] = 5 mg/kg/day 7 days in-feed, 76 days post sea transfer
[11] = 5 mg/kg/day 7 days in-feed, 98 days post sea transfer
[12] = 5 mg/kg/day 7 days in-feed, 125 days post sea transfer
[13] = 5 mg/kg/day 7 days in-feed, 154 days post sea transfer
[14] = 10 mg/kg/day 7 days in-feed, 15 days post sea transfer
[15] = 10 mg/kg/day 7 days in-feed, 76 days post sea transfer
[16] = 10 mg/kg/day 7 days in-feed, 98 days post sea transfer
[17] = 10 mg/kg/day 7 days in-feed, 125 days post sea transfer
[18] = 10 mg/kg/day 7 days in-feed, 154 days post sea transfer

## O=C(NC(=O)c1c(F)cccc1F)Nc1cc(Cl)c(OC(F)(F)C(F)C(F)(F)F)cc1Cl (centres unmarked) [lufenuron, N-{[2,5-Dichlor-4-(1,1,2,3,3,3-hexafluorpropoxy)phenyl]carbamoyl}-2,6-difluorbenzamid]
[1]
  protection against sea louse infestation after injection: 128 days
[2]; [3]
  L. salmonis: all stages, Treated, counts: 0
  L. salmonis: pre- & adults, Efficacy: 100%
  L. salmonis: pre- & adults, Treated, counts: 0
[2]; [4]
  L. salmonis: all stages, Treated, counts: 0
  L. salmonis: pre- & adults, Efficacy: 100%
  L. salmonis: pre- & adults, Treated, counts: 0
[2]; [5]
  L. salmonis: all stages, Treated, counts: 0.1
  L. salmonis: pre- & adults, Efficacy: 96.2%
  L. salmonis: pre- & adults, Treated, counts: 0.1
[2]; [6]
  L. salmonis: all stages, Treated, counts: 0.8
  L. salmonis: pre- & adults, Efficacy: 83.9%
  L. salmonis: pre- & adults, Treated, counts: 0.45
[2]; [7]
  L. salmonis: all stages, Treated, counts: 0.4
  L. salmonis: pre- & adults, Efficacy: 92.9%
  L. salmonis: pre- & adults, Treated, counts: 0.3
[2]; [8]
  L. salmonis: all stages, Treated, counts: 0.3
  L. salmonis: pre- & adults, Efficacy: 92.8%
  L. salmonis: pre- & adults, Treated, counts: 0.3
[2]; [9]
  L. salmonis: all stages, Treated, counts: 0.1
  L. salmonis: pre- & adults, Efficacy: 100%
  L. salmonis: pre- & adults, Treated, counts: 0
[2]; [10]
  L. salmonis: all stages, Treated, counts: 0
  L. salmonis: pre- & adults, Efficacy: 100%
  L. salmonis: pre- & adults, Treated, counts: 0
[2]; [11]
  L. salmonis: all stages, Treated, counts: 0.1
  L. salmonis: pre- & adults, Efficacy: 96.4%
  L. salmonis: pre- & adults, Treated, counts: 0.1
[2]; [12]
  L. salmonis: all stages, Treated, counts: 0
  L. salmonis: pre- & adults, Efficacy: 100%
  L. salmonis: pre- & adults, Treated, counts: 0
[2]; [13]
  L. salmonis: all stages, Treated, counts: 0
  L. salmonis: pre- & adults, Efficacy: 100%
  L. salmonis: pre- & adults, Treated, counts: 0
[2]; [14]
  L. salmonis: all stages, Treated, counts: 0.5
  L. salmonis: pre- & adults, Efficacy: 100%
  L. salmonis: pre- & adults, Treated, counts: 0
[2]; [15]
  L. salmonis: all stages, Treated, counts: 0
  L. salmonis: pre- & adults, Efficacy: 100%
  L. salmonis: pre- & adults, Treated, counts: 0
[2]; [16]
  L. salmonis: all stages, Treated, counts: 0
  L. salmonis: pre- & adults, Efficacy: 100%
  L. salmonis: pre- & adults, Treated, counts: 0
[2]; [17]
  L. salmonis: all stages, Treated, counts: 0
  L. salmonis: pre- & adults, Efficacy: 100%
  L. salmonis: pre- & adults, Treated, counts: 0
[2]; [18]
  L. salmonis: all stages, Treated, counts: 0
  L. salmonis: pre- & adults, Efficacy: 100%
  L. salmonis: pre- & adults, Treated, counts: 0
[2]; Example 2, 1 mg/kg treatment
  protected the fish against sea louse infestation until at least (time post-treatment): five
[2]; Example 2, 1 mg/kg treatment, until at least five month post-treatment
  efficacy over the protection period: approximately 90%
[2]; Example 2, 5 mg/kg treatment, study continues
  protected the fish against sea louse infestation until (time post-treatment): 5 months
[2]; Example 2, 10 mg/kg treatment, study continues
  protected the fish against sea louse infestation up to (time post-treatment): 5 months
